Assays:
[1] = biological target: T1, Peroxisome proliferator-activated receptor alpha (Homo sapiens, UniProt Q07869); type: functional
T1 sequence (Q07869 whole entry): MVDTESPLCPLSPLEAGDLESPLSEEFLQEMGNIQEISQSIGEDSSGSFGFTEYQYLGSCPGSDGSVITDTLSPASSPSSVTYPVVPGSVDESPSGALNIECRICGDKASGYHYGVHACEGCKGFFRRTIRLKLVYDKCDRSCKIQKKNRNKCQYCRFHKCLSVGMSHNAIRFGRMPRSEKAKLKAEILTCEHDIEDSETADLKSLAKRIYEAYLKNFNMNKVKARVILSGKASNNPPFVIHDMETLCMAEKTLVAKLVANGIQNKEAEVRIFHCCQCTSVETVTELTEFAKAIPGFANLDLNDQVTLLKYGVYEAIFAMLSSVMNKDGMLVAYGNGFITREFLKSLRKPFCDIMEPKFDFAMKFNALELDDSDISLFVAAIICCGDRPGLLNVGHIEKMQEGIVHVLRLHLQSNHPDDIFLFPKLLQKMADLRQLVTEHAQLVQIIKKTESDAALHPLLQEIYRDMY

[2] = biological target: T2, Peroxisome proliferator-activated receptor delta (Homo sapiens, UniProt Q03181)
T2 sequence (Q03181 whole entry): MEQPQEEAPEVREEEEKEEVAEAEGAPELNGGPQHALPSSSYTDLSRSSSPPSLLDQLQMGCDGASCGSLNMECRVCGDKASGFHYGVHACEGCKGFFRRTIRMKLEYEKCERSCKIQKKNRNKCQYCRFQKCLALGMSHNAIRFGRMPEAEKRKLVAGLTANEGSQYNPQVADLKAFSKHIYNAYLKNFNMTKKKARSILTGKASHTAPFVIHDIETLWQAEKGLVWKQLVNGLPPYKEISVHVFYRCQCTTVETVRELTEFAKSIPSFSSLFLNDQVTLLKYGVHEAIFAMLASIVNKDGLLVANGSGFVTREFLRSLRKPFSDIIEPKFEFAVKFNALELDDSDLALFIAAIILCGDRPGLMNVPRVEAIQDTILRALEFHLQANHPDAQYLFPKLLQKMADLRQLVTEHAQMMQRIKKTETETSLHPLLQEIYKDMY

[3] = biological target: T1, Peroxisome proliferator-activated receptor alpha; type: cell-based, CV-1
[4] = biological target: T2, Peroxisome proliferator-activated receptor delta; type: cell-based; details: cv-1
[5] = biological target: T2, Peroxisome proliferator-activated receptor delta; type: functional
[6] = biological target: T2, Peroxisome proliferator-activated receptor delta; type: cell-based, CV-1
[7] = biological target: T2, Peroxisome proliferator-activated receptor delta; remark: listed apart in the source

Row | IC50 [1] [nM] | EC50 [3] [nM] | EC50 [4] | IC50 [5] [nM] | EC50 ([6]; cv-1) | also measured | Compound
1 | 167 | 7 | Not Active | – | – | IC50 [2]: Not Active | Cc1oc(-c2cccc(-c3ccccc3)c2)nc1CCOc1ccc(CC(C)(Oc2ccccc2)C(=O)O)cc1 (stereo not given)
2 | – | – | Not Active | 4450 | – | – | Cc1oc(-c2ccccc2)nc1CCOc1ccc(OC(C)(Cc2ccccc2)C(=O)O)cc1 (stereo not given)
3 | 1850 | 2560 | – | 7230 | Not Active | – | CCCCC(Cc1ccc(OCCc2nc(-c3ccccc3)oc2C)cc1)(Oc1ccccc1)C(=O)O (stereo not given)
4 | – | – | – | 2680 | – | EC50 ([6]; read-out: EC50): 3010 nM | Cc1oc(-c2ccccc2)nc1CCOc1ccc(C[C@@](C)(Oc2ccccc2)C(=O)O)cc1
5 | – | – | Not Active | – | – | IC50 [7]: Not Active | Cc1oc(C2CCCCC2)nc1CCOc1ccc(CC(C)(Oc2ccccc2)C(=O)O)cc1 (stereo not given)
6 | 503 | 69 | Not Active | – | – | IC50 [7]: Not Active | Cc1oc(-c2ccc(-c3ccccc3)cc2)nc1CCOc1ccc(CC(C)(Oc2ccccc2)C(=O)O)cc1 (stereo not given)
7 | – | – | Not Active | 7110 | – | – | Cc1oc(-c2ccccc2)nc1CCOc1ccc(CC(C)(Oc2ccccc2)C(=O)O)cc1 (stereo not given)
8 | – | – | Not Active | – | – | – | Cc1oc(-c2cccs2)nc1CCOc1ccc(CC(C)(Oc2ccccc2)C(=O)O)cc1 (stereo not given)
9 | – | – | – | 9690 | Not Active | – | Cc1oc(C2CCCCC2)nc1CCOc1ccc(C[C@](C)(Oc2ccccc2)C(=O)O)cc1
10 | – | – | Not Active | – | – | – | Cc1oc(-c2cccs2)nc1CCOc1ccc(C[C@](C)(Oc2ccccc2)C(=O)O)cc1 [LY-510929]
11 | – | – | – | 5520 | Not Active | – | Cc1oc(-c2ccccc2)nc1CCOc1ccc(C[C@](C)(Oc2ccccc2)C(=O)O)cc1
12 | – | – | – | – | Not Active | – | Cc1oc(-c2cccs2)nc1CCOc1ccc(C[C@@](C)(Oc2ccccc2)C(=O)O)cc1
13 | 1110 | 833 | – | 7040 | Not Active | – | Cc1oc(-c2ccccc2)nc1CCOc1ccc(CC(Oc2ccccc2)C(=O)O)cc1 (stereo not given)
14 | 473 | 75 | – | 5070 | Not Active | – | CCC(Cc1ccc(OCCc2nc(-c3ccccc3)oc2C)cc1)(Oc1ccccc1)C(=O)O (stereo not given)

From ChEMBL document CHEMBL1148303, “Design and synthesis of alpha-aryloxy-alpha-methylhydrocinnamic acids: a novel class of dual peroxisome proliferator-activated receptor alpha/gamma agonists” (J Med Chem, 2004)
